The supplement of paper PMC11208160

Experiment: recombinant UMI read abundance after kanamycin selection (control-corrected) (log10(CPM+1)); higher = more efficient recombination; extreme values may be limits of the assay; sequences stand for … in AGTGCAGAGAAAATCGGCCAGTTTTCTCTGCCTGCAGTCCGCATGCCGTGGGACCCCTTGGGTTCTAACCTGTTGCCTAGATTTATGCAGCGGACTGCCTTTCTCCCAAAGTGATAAACCGG…AGGTTGGTTTCACT; site = the 11-nt donor
In short: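 Counts of recombinant UMIs were reported as log10(CPM+1). Before that, they were converted to CPM, averaged over replicates and scaled using control-derived factors. They came from PCR across the donor–target junction after Escherichia coli carrying the pair library and target plasmid was plated on IPTG (0.07 mM) plus kanamycin, or unselected, in two replicates each.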
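Further: IS621 bridge recombinase in Escherichia coli cells against a fixed T5 target plasmid.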

| Sequence | recombinant UMI read abundance (log10) |
| --- | --- |
| CGTTCGGCATGGACCGGTTTTCCCGGTAATCCGTATTTGCT (site CGTTGGGCTAG) | 0.00466 |
| CGTTCGGCATGGACCGGTTTTCCCGGTAATCCGTATTTGCT (site CGTTTGGCTAG) | 0 |
| CGTTGCTCATGGACCGGTTTTCCCGGTAATCCGTATTTGAT (site CGTTGCTCTAT) | 1.8 |
| CGTTGTACATGGACCGGTTTTCCCGGTAATCCGTATTTGCT (site CGTTGTACTAG) | 1.39 |
| CGTTTCGCATGGACCGGTTTTCCCGGTAATCCGTATTTGCT (site CGTTTAGCTAG) | 0 |
| CGTTTCGCATGGACCGGTTTTCCCGGTAATCCGTATTTGCT (site CGTTTCGCTAG) | 0.892 |
| CGTTTCGCATGGACCGGTTTTCCCGGTAATCCGTATTTGCT (site CGTTTGGCTAG) | 0 |
| CGTTTCGCATGGACCGGTTTTCCCGGTAATCCGTATTTGCT (site CGTTTTGCTAG) | 0 |
| CGTTTGACATGGACCGGTTTTCCCGGTAATCCGTATTTGAG (site CGTTAGACTCT) | 0.00643 |
| CGTTTGACATGGACCGGTTTTCCCGGTAATCCGTATTTGAG (site CGTTCGACTCT) | 0 |
| CGTTTGACATGGACCGGTTTTCCCGGTAATCCGTATTTGAG (site CGTTGGACTCT) | 0.0522 |
| CGTTTGACATGGACCGGTTTTCCCGGTAATCCGTATTTGAG (site CGTTTGACTCT) | 1.03 |
| CGTTTGGCATGGACCGGTTTTCCCGGTAATCCGTATTTGCA (site CGTTTGGCTAG) | 0 |
| CGTTTGGCATGGACCGGTTTTCCCGGTAATCCGTATTTGCA (site CGTTTGGCTCG) | 0.024 |
| CGTTTGGCATGGACCGGTTTTCCCGGTAATCCGTATTTGCA (site CGTTTGGCTGG) | 0 |
| CGTTTGGCATGGACCGGTTTTCCCGGTAATCCGTATTTGCA (site CGTTTGGCTTG) | 0.562 |
| CTAACAGCATGGACCGGTTTTCCCGGTAATCCGTATTTGTA (site CTAACAGCTTA) | 2.48 |
| CTAACATCATGGACCGGTTTTCCCGGTAATCCGTATTTGCT (site CTAACATCTAG) | 2.12 |
| CTAACTGCATGGACCGGTTTTCCCGGTAATCCGTATTTGTC (site CTAACTGCTGA) | 2.12 |

| Sequence | recombinant UMI read abundance (log10) |
| --- | --- |
| CTAAGACCATGGACCGGTTTTCCCGGTAATCCGTATTTGCG (site CTAAGACCTCG) | 0.0114 |
| CTACAACCATGGACCGGTTTTCCCGGTAATCCGTATTTGAT (site CTACAACCTAT) | 0 |
| CTACCATCATGGACCGGTTTTCCCGGTAATCCGTATTTGAC (site CTACCATCTGT) | 2.39 |
| CTACCATCATGGACCGGTTTTCCCGGTAATCCGTATTTGAC (site CTAGTATCTGT) | 0 |
| CTACCGCCATGGACCGGTTTTCCCGGTAATCCGTATTTGAC (site CTACCGCCTGT) | 0.322 |
| CTACCGCCATGGACCGGTTTTCCCGGTAATCCGTATTTGCG (site CTACCGCCTCG) | 0.268 |
| CTACGAACATGGACCGGTTTTCCCGGTAATCCGTATTTGGG (site CTACGAACTCC) | 1.11 |
| CTACGCCCATGGACCGGTTTTCCCGGTAATCCGTATTTGTG (site CTACGCCCTCA) | 0.232 |
| CTACGTCCATGGACCGGTTTTCCCGGTAATCCGTATTTGAA (site CTACGTCCTTT) | 1.23 |
| CTACTAACATGGACCGGTTTTCCCGGTAATCCGTATTTGCA (site CTACTAACTTA) | 1.4 |
| CTACTAACATGGACCGGTTTTCCCGGTAATCCGTATTTGCA (site CTACTAACTTC) | 0.0167 |
| CTACTAACATGGACCGGTTTTCCCGGTAATCCGTATTTGCA (site CTACTAACTTG) | 2.47 |
| CTACTAACATGGACCGGTTTTCCCGGTAATCCGTATTTGCA (site CTACTAACTTT) | 1.47 |
| CTACTAACATGGACCGGTTTTCCCGGTAATCCGTATTTGGT (site CTACTAACTAC) | 0.461 |
| CTACTAACATGGACCGGTTTTCCCGGTAATCCGTATTTGGT (site CTACTAACTCC) | 0.0128 |
| CTACTAACATGGACCGGTTTTCCCGGTAATCCGTATTTGGT (site CTACTAACTGC) | 0 |
| CTACTAACATGGACCGGTTTTCCCGGTAATCCGTATTTGGT (site CTACTAACTTC) | 0.0138 |
| CTACTAGCATGGACCGGTTTTCCCGGTAATCCGTATTTGGA (site CTACTAACTTC) | 1.43 |
| CTACTAGCATGGACCGGTTTTCCCGGTAATCCGTATTTGGA (site CTACTACCTTC) | 0.00939 |

| Sequence | recombinant UMI read abundance (log10) |
| --- | --- |
| CTACTAGCATGGACCGGTTTTCCCGGTAATCCGTATTTGGA (site CTACTAGCTTC) | 1.52 |
| CTACTAGCATGGACCGGTTTTCCCGGTAATCCGTATTTGGA (site CTACTATCTTC) | 2.05 |
| CTACTGACATGGACCGGTTTTCCCGGTAATCCGTATTTGGA (site CTACTAACTTC) | 1.76 |
| CTACTGACATGGACCGGTTTTCCCGGTAATCCGTATTTGGA (site CTACTCACTTC) | 0.015 |
| CTACTGACATGGACCGGTTTTCCCGGTAATCCGTATTTGGA (site CTACTGACTTC) | 0.475 |
| CTACTGACATGGACCGGTTTTCCCGGTAATCCGTATTTGGA (site CTACTTACTTC) | 0.67 |
| CTACTTACATGGACCGGTTTTCCCGGTAATCCGTATTTGGA (site CTACTAACTTC) | 0.0935 |
| CTACTTACATGGACCGGTTTTCCCGGTAATCCGTATTTGGA (site CTACTCACTTC) | 0.209 |
| CTACTTACATGGACCGGTTTTCCCGGTAATCCGTATTTGGA (site CTACTGACTTC) | 0.0111 |
| CTACTTACATGGACCGGTTTTCCCGGTAATCCGTATTTGGA (site CTACTTACTTC) | 1.32 |
| CTACTTTCATGGACCGGTTTTCCCGGTAATCCGTATTTGAC (site CTACTTTCTGT) | 1.94 |
| CTACTTTCATGGACCGGTTTTCCCGGTAATCCGTATTTGAC (site CTAGTATCTGT) | 0 |
| CTAGAATCATGGACCGGTTTTCCCGGTAATCCGTATTTGAC (site CTAGAATCTGT) | 2.83 |
| CTAGAATCATGGACCGGTTTTCCCGGTAATCCGTATTTGAC (site CTAGCATCTGT) | 0 |
| CTAGAATCATGGACCGGTTTTCCCGGTAATCCGTATTTGAC (site CTAGGATCTGT) | 1.28 |
| CTAGAATCATGGACCGGTTTTCCCGGTAATCCGTATTTGAC (site CTAGTATCTGT) | 2 |
| CTAGAGGCATGGACCGGTTTTCCCGGTAATCCGTATTTGTT (site CTAGAGGCTAA) | 1.82 |
| CTAGCAGCATGGACCGGTTTTCCCGGTAATCCGTATTTGCT (site CAAGCAGCTAG) | 0.38 |
| CTAGCAGCATGGACCGGTTTTCCCGGTAATCCGTATTTGCT (site CCAGCAGCTAG) | 0.129 |
